Assay results as given in BigSolDB 2.1.

O=c1cc(CO)occ1O
Settings | solubility (mole fraction)
in 1,4-dioxane, 288.15 K | 0.00698
in 1,4-dioxane, 293.15 K | 0.0086
in 1,4-dioxane, 298.15 K | 0.0103
in 1,4-dioxane, 303.15 K | 0.0121
in 1,4-dioxane, 308.15 K | 0.0153
in 1,4-dioxane, 313.15 K | 0.018
in 1,4-dioxane, 318.15 K | 0.0209
in 2-ethoxyethanol, 278.15 K | 0.0134
in 2-ethoxyethanol, 283.15 K | 0.015
in 2-ethoxyethanol, 288.15 K | 0.0177
in 2-ethoxyethanol, 293.15 K | 0.0204
in 2-ethoxyethanol, 298.15 K | 0.0233
in 2-ethoxyethanol, 303.15 K | 0.0261
in 2-ethoxyethanol, 308.15 K | 0.03
in 2-ethoxyethanol, 313.15 K | 0.034
in 2-ethoxyethanol, 318.15 K | 0.0381
in 2-ethoxyethanol, 323.15 K | 0.0435
in 2-methoxyethanol, 278.15 K | 0.0181
in 2-methoxyethanol, 283.15 K | 0.0214
in 2-methoxyethanol, 288.15 K | 0.0252
in 2-methoxyethanol, 293.15 K | 0.0287
in 2-methoxyethanol, 298.15 K | 0.0331
in 2-methoxyethanol, 303.15 K | 0.0377
in 2-methoxyethanol, 308.15 K | 0.0431
in 2-methoxyethanol, 313.15 K | 0.0491
in 2-methoxyethanol, 318.15 K | 0.0559
in 2-methoxyethanol, 323.15 K | 0.0625
in DMAc, 278.15 K | 0.148
in DMAc, 283.15 K | 0.157
in DMAc, 288.15 K | 0.165
in DMAc, 293.15 K | 0.174
in DMAc, 298.15 K | 0.184
in DMAc, 303.15 K | 0.194
in DMAc, 308.15 K | 0.205
in DMAc, 313.15 K | 0.216
in DMAc, 318.15 K | 0.228
in DMAc, 323.15 K | 0.24
in DMF, 278.15 K | 0.0977
in DMF, 283.15 K | 0.106
in DMF, 288.15 K | 0.114
in DMF, 293.15 K | 0.123
in DMF, 298.15 K | 0.135
in DMF, 303.15 K | 0.147
in DMF, 308.15 K | 0.157
in DMF, 313.15 K | 0.168
in DMF, 318.15 K | 0.18
in DMF, 323.15 K | 0.193
in DMSO, 293.15 K | 0.238
in DMSO, 298.15 K | 0.249
in DMSO, 303.15 K | 0.259
in DMSO, 308.15 K | 0.268
in DMSO, 313.15 K | 0.28
in DMSO, 318.15 K | 0.292
in DMSO, 323.15 K | 0.303
in DMSO, 328.15 K | 0.316
in DMSO, 333.15 K | 0.331
in NMP, 278.15 K | 0.17
in NMP, 283.15 K | 0.179
in NMP, 288.15 K | 0.185
in NMP, 293.15 K | 0.193
in NMP, 298.15 K | 0.201
in NMP, 303.15 K | 0.208
in NMP, 308.15 K | 0.216
in NMP, 313.15 K | 0.223
in NMP, 318.15 K | 0.232
in NMP, 323.15 K | 0.241
in acetic acid, 293.15 K | 0.0139
in acetic acid, 298.15 K | 0.0169
in acetic acid, 303.15 K | 0.0204
in acetic acid, 308.15 K | 0.0246
in acetic acid, 313.15 K | 0.0293
in acetic acid, 318.15 K | 0.0353
in acetic acid, 323.15 K | 0.0425
in acetic acid, 328.15 K | 0.0511
in acetic acid, 333.15 K | 0.0613
in acetone, 278.15 K | 0.00224
in acetone, 283.15 K | 0.00276
in acetone, 288.15 K | 0.00324
in acetone, 293.15 K | 0.00383
in acetone, 298.15 K | 0.00455
in acetone, 303.15 K | 0.00556
in acetone, 308.15 K | 0.00686
in acetone, 313.15 K | 0.008
in acetone, 318.15 K | 0.00932
in acetone, 323.15 K | 0.0106
in ethanol, 278.15 K | 0.0031
in ethanol, 283.15 K | 0.00374
in ethanol, 288.15 K | 0.00459
in ethanol, 293.15 K | 0.00595
in ethanol, 298.15 K | 0.00739
in ethanol, 303.15 K | 0.00893
in ethanol, 308.15 K | 0.0108
in ethanol, 313.15 K | 0.013
in ethanol, 318.15 K | 0.0158
in ethanol, 323.15 K | 0.0191
in ethyl acetate, 278.15 K | 0.000804
in ethyl acetate, 283.15 K | 0.00105
in ethyl acetate, 288.15 K | 0.00137
in ethyl acetate, 293.15 K | 0.00169
in ethyl acetate, 298.15 K | 0.00201
in ethyl acetate, 303.15 K | 0.00242
in ethyl acetate, 308.15 K | 0.00296
in ethyl acetate, 313.15 K | 0.00338
in ethyl acetate, 318.15 K | 0.00411
in ethyl acetate, 323.15 K | 0.00497
in methanol, 278.15 K | 0.00492
in methanol, 283.15 K | 0.00606
in methanol, 288.15 K | 0.00737
in methanol, 293.15 K | 0.00891
in methanol, 298.15 K | 0.011
in methanol, 303.15 K | 0.0132
in methanol, 308.15 K | 0.0156
in methanol, 313.15 K | 0.0189
in methanol, 318.15 K | 0.0223
in methanol, 323.15 K | 0.0267
in n-propanol, 278.15 K | 0.00225
in n-propanol, 283.15 K | 0.00281
in n-propanol, 288.15 K | 0.00339
in n-propanol, 293.15 K | 0.00423
in n-propanol, 298.15 K | 0.00524
in n-propanol, 303.15 K | 0.00646
in n-propanol, 308.15 K | 0.00782
in n-propanol, 313.15 K | 0.00964
in n-propanol, 318.15 K | 0.0116
in n-propanol, 323.15 K | 0.0139
in water, 278.15 K | 0.00216
in water, 283.15 K | 0.00276
in water, 288.15 K | 0.00353
in water, 293.15 K | 0.0043
in water, 298.15 K | 0.00553
in water, 303.15 K | 0.00679
in water, 308.15 K | 0.00873
in water, 313.15 K | 0.0113
in water, 318.15 K | 0.0143
in water, 323.15 K | 0.0185
